The numbers were not newly measured in patent US7098367B2, “Process for the preparation of alkylene glycols” (Saudi Basic Industries Corporation, priority 2004, dated 2006), which cites them from elsewhere.

The conditions of the data set: value may be measured experimentally, taken from references or estimated.
On to `CN(C)c1ccccc1` [Comparative 1, Dimethylaniline, reference compound], for which the pKa (usually the pH at which an ionisable group is half protonated) is recorded as 5.07.

As to `NC(=O)NC12CC3CC(CC(C3)C1)C2` [Comparative 3, N-(1-adamantyl)urea, reference compound], the pKa is recorded as 0.18.

As to `NCCN` [Example 1, Ethylenediamine (EDA)], the pKa is 9.95.

For the compound `C1CCCNCC1` [Example 3, Hexamethyleneimine], the pKa was 10.

Turning to `C1CN2CCN1CC2` [Example 5, 1,4-diazabicyclo[2,2,2]octane (DABCO)], the pKa is 8.82.

Turning to `CN(C)CCN(C)C` [Example 12, Tetramethylethylenediamine (TMEDA)], the pKa is 10.72.
